From patent US20260022143A1, “Cyclic Peptide Inhibitors of IL-23” (JANSSEN PHARMACEUTICA NV, priority 2022, published 2026)
Starred links: 1 amine or outer side, 2 acyl side, 3 side chain; linkers in the order of their positions; H or OH if unused. Positions of bridges follow the written chain, without caps; N, C: chain ends. Non-standard residues stand in square brackets, D forms with d. Residues, ends and D or L forms follow the SMILES beside them. *: point of attachment. X36 = C[N+]1(CCCc2cn(-c3ccc(C[C@H](N[*:1])C(=O)[*:2])cc3)nn2)CCOCC1; Me3N+(CH2)2O(CH2)2O(CH2)2CO = C[N+](C)(C)CCOCCOCCC(=O)*; CH2CH2OCH2CH2OCH2CH2NMe3+ = C[N+](C)(C)CCOCCOCC*; Trp(7-Me) = Cc1cccc2c(C[C@H](N)C(=O)O)c[nH]c12; dLys(Me3) = C[N+](C)(C)CCCC[C@@H](N)C(=O)O; 3Pal(5-Me) = Cc1cncc(C[C@H](N)C(=O)O)c1; 2Nal = N[C@@H](Cc1ccc2ccccc2c1)C(=O)O; AEF = NCCOc1ccc(C[C@H](N)C(=O)O)cc1; 3Pal = N[C@@H](Cc1cccnc1)C(=O)O; Lys(Me) = CNCCCC[C@H](N)C(=O)O; X53 = C[N+]1(CCOCCOCC*)CCOCC1; Pen = CC(C)(S)[C@H](N)C(=O)O; X4 = COCCOCCCN(CCCOCCOC)CC*; Thp = NC1(C(=O)O)CCOCC1; Dap = NC[C@H](N)C(=O)O; Me2NCH2CH2 = CN(C)CC*; Sar = CNCC(=O)O

What was measured:
[1] = Exposed Polar Surface Area (EPSA); assay type: physicochemical; conditions: SFC on Chirex 3014 column; sample 1 mM DMSO stock; read-out: EPSA
Summary of the method: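 Polarity descriptor in Å² derived from retention time using 8 calibration standards re-run every 20 compounds. Duplicate injections of 1 mM DMSO stock; linear 5–60% modifier gradient (20 mM ammonium formate in MeOH) with CO2 at 4 mL/min, 35 °C, on a Chirex 3014 column.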

IL-23R = biological target: T1, IL-23R (Homo sapiens, UniProt Q5VWK5); experiment: IL23R Reporter Assay; assay type: cell-based; conditions: HEK293 cells containing IL-23R, IL-12RP1 and STAT-inducible firefly luciferase reporter; 10 ng/mL IL-23 (EC90); 5 h at 37° C.; read-out: IL23R Reporter Assay
T1 construct: host or cells: HEK293
T1 sequence (Q5VWK5 24-629): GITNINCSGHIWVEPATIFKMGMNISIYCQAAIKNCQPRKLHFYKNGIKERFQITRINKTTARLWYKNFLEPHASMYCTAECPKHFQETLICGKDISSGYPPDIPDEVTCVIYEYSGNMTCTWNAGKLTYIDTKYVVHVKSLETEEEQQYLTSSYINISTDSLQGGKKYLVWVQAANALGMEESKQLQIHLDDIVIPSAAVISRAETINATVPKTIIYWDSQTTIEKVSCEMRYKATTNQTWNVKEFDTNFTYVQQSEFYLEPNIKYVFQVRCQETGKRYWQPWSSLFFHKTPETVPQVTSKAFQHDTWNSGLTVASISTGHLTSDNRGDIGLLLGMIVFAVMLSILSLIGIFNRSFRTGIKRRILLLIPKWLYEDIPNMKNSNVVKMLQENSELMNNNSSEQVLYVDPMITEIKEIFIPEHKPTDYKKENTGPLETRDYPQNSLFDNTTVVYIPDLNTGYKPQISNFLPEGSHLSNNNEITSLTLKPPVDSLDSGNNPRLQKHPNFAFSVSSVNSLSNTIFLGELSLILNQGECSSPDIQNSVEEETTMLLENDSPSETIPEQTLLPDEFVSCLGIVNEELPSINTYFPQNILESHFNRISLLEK

EPSA [1]	IC50 (IL-23R)	SMILES
160 A^2	1.2 nM	CC(=O)N(C)CCCC[C@@H]1NC(=O)[C@H](Cc2c[nH]c3c(C)cccc23)NC(=O)[C@H]([C@@H](C)O)NC(=O)[C@H](CC(=O)N(C)C)NC(=O)[C@@H](NC(=O)CCOCCOCC[N+](C)(C)C)C(C)(C)SSC(C)(C)[C@@H](C(=O)N[C@@H](Cc2ccc(OCCOCCOCC[N+](C)(C)C)cc2)C(=O)N[C@@H](Cc2ccc3ccccc3c2)C(=O)NC2(C(=O)N[C@@H](Cc3c[nH]c4ccccc34)C(=O)N[C@@H](CC(N)=O)C(=O)N[C@@H](Cc3cccnc3)C(=O)N(C)CC(=O)N(C)C)CCOCC2)NC1=O [compound 470, cPEG3aCO-Pen(3)-N(N(Me)2)-T-7MeW-K(NMeAc)-Pen(3)-APEG3F-2Nal-THP-W-N-3Pya-Sar-CON(Me)2] ({Me3N+(CH2)2O(CH2)2O(CH2)2CO}-[Pen]D(NMe2)T[Trp(7-Me)][Lys(Me)](Ac)[Pen]Y(CH2CH2OCH2CH2OCH2CH2NMe3+)[2Nal][Thp]WN[3Pal][Sar]-NMe2; disulfide 1-6)
168 A^2	8.3 nM	CC(=O)NCCCC[C@@H]1NC(=O)[C@H](Cc2c[nH]c3c(C)cccc23)NC(=O)[C@H]([C@@H](C)O)NC(=O)[C@H](CC(N)=O)NC(=O)[C@@H](NC(=O)COCCOCCNC(=O)COCCOCCNC(=O)CCCc2ccc(I)cc2)C(C)(C)SSC(C)(C)[C@@H](C(=O)N[C@@H](Cc2ccc(OCCCCC[N+](C)(C)C)cc2)C(=O)N[C@@H](Cc2ccc3ccccc3c2)C(=O)NC2(C(=O)N[C@@H](CCCCNC(C)=O)C(=O)N[C@@H](CC(N)=O)C(=O)N[C@@H](Cc3cccnc3)C(=O)N(C)CC(N)=O)CCOCC2)NC1=O [compound 491, IPBPEG2PEG2CO-Pen(3)-N-T-7MeW-K(Ac)-Pen(3)-TMAPF-2Nal-THP-K(Ac)-N-3Pya-Sar-CONH2]
170 A^2	1.6 nM	CC(=O)NCCCC[C@@H]1NC(=O)[C@H](Cc2c[nH]c3c(C)cccc23)NC(=O)[C@H]([C@@H](C)O)NC(=O)[C@H](CC(N)=O)NC(=O)[C@@H](NC(=O)[C@@H](CCCC[N+](C)(C)C)NC(C)=O)C(C)(C)SSC(C)(C)[C@@H](C(=O)N[C@@H](Cc2ccc(OCCN)cc2)C(=O)N[C@@H](Cc2ccc3ccccc3c2)C(=O)NC2(C(=O)N[C@@H](CCCCNC(C)=O)C(=O)N[C@@H](CC(N)=O)C(=O)N[C@@H](Cc3cncc(C)c3)C(=O)N(C)CC(N)=O)CCOCC2)NC1=O [compound 533, MeCO-k(Me)3-Pen(3)-N-T-7MeW-K(Ac)-Pen(3)-AEF-2Nal-THP-K(Ac)-N-5MePyridinAla-Sar-CONH2] (Ac-[dLys(Me3)][Pen]NT[Trp(7-Me)]K(Ac)[Pen][AEF][2Nal][Thp]K(Ac)N[3Pal(5-Me)][Sar]-NH2; disulfide 2-7)
163 A^2	2 nM	CC(=O)NCCCC[C@@H]1NC(=O)[C@H](Cc2c[nH]c3c(C)cccc23)NC(=O)[C@H]([C@@H](C)O)NC(=O)[C@H](CC(N)=O)NC(=O)[C@@H](NC(C)=O)C(C)(C)SSC(C)(C)[C@@H](C(=O)N[C@@H](Cc2ccc(-n3cc(CCC[N+]4(C)CCOCC4)nn3)cc2)C(=O)N[C@@H](Cc2ccc3ccccc3c2)C(=O)NC2(C(=O)N[C@@H](CCCCNC(C)=O)C(=O)N[C@@H](CC(N)=O)C(=O)N[C@@H](Cc3cccnc3)C(=O)N(C)CC(N)=O)CCOCC2)NC1=O [compound 440] (Ac-[Pen]NT[Trp(7-Me)]K(Ac)[Pen][X36][2Nal][Thp]K(Ac)N[3Pal][Sar]-NH2; disulfide 1-6 (inferred))
158 A^2	2.1 nM	CC(=O)NCCCC[C@@H]1NC(=O)[C@H](Cc2c[nH]c3c(C)cccc23)NC(=O)[C@H]([C@@H](C)O)NC(=O)[C@H](CC(N)=O)NC(=O)[C@@H](NC(C)=O)C(C)(C)SSC(C)(C)[C@@H](C(=O)N[C@@H](Cc2ccc(OCCOCCOCC[N+]3(C)CCOCC3)cc2)C(=O)N[C@@H](Cc2ccc3ccccc3c2)C(=O)NC2(C(=O)N[C@@H](CCCCNC(C)=O)C(=O)N[C@@H](CC(N)=O)C(=O)N[C@@H](Cc3cccnc3)C(=O)N(C)CC(N)=O)CCOCC2)NC1=O [compound 455] (Ac-[Pen]NT[Trp(7-Me)]K(Ac)[Pen]Y(X53)[2Nal][Thp]K(Ac)N[3Pal][Sar]-NH2; disulfide 1-6)
156 A^2	3.8 nM	Cc1cccc2c(C[C@@H]3NC(=O)[C@H]([C@@H](C)O)NC(=O)[C@H](CC(=O)N(C)C)NC(=O)[C@@H](NC(=O)CCOCCOCC[N+](C)(C)C)C(C)(C)SSC(C)(C)[C@@H](C(=O)N[C@@H](Cc4ccc(OCCN)cc4)C(=O)N[C@@H](Cc4ccc5ccccc5c4)C(=O)NC4(C(=O)N[C@@H](CCC(=O)N(C)C)C(=O)N[C@@H](CC(N)=O)C(=O)N[C@@H](Cc5cccnc5)C(=O)N(C)CC(N)=O)CCOCC4)NC(=O)[C@H](CCC(=O)N(C)C)NC3=O)c[nH]c12 [compound 147, cPEG3aCO-Pen(3)-N(N(Me)2)-T-7MeW-Q(N(Me)2)-Pen(3)-AEF-2Nal-THP-Q(N(Me)2)-N-3Pya-Sar-CONH2] ({Me3N+(CH2)2O(CH2)2O(CH2)2CO}-[Pen]D(NMe2)T[Trp(7-Me)]E(NMe2)[Pen][AEF][2Nal][Thp]E(NMe2)N[3Pal][Sar]-NH2; disulfide 1-6)
135 A^2	1.6 nM	COCCOCCCN(CCCOCCOC)CCOc1ccc(C[C@H](NC(=O)[C@H]2NC(=O)[C@H](CCCCN(C)C(C)=O)NC(=O)[C@H](Cc3c[nH]c4c(C)cccc34)NC(=O)[C@H]([C@@H](C)O)NC(=O)[C@H](CC(=O)N(C)C)NC(=O)[C@@H](NC(=O)CCOCCOCC[N+](C)(C)C)C(C)(C)SSC2(C)C)C(=O)N[C@@H](Cc2ccc3ccccc3c2)C(=O)NC2(C(=O)N[C@@H](CCCCN(C)C(C)=O)C(=O)N[C@@H](CC(N)=O)C(=O)N[C@@H](Cc3cccnc3)C(=O)N(C)CC(=O)N(C)C)CCOCC2)cc1 [compound 203, cPEG3aCO-Pen(3)-N(N(Me)2)-T-7MeW-K(NMeAc)-Pen(3)-AEF(BisMEP))-2Nal-THP-K(NMeAc)-N-3Pya-Sar-CON(Me)2] ({Me3N+(CH2)2O(CH2)2O(CH2)2CO}-[Pen]D(NMe2)T[Trp(7-Me)][Lys(Me)](Ac)[Pen]Y(X4)[2Nal][Thp][Lys(Me)](Ac)N[3Pal][Sar]-NMe2; disulfide 1-6)
139 A^2	4.6 nM	CC(=O)NC[C@H](NC(=O)C1(NC(=O)[C@H](Cc2ccc3ccccc3c2)NC(=O)[C@H](Cc2ccc(OCCN(C)C)cc2)NC(=O)[C@H]2NC(=O)[C@H](CCCCN(C)C(C)=O)NC(=O)[C@H](Cc3c[nH]c4c(C)cccc34)NC(=O)[C@H]([C@@H](C)O)NC(=O)[C@H](CC(=O)N(C)C)NC(=O)[C@@H](NC(C)=O)C(C)(C)SSC2(C)C)CCOCC1)C(=O)N[C@@H](CC(N)=O)C(=O)N[C@@H](Cc1cccnc1)C(=O)N(C)CC(=O)N(C)C [compound 98, MeCO-Pen(3)-N(N(Me)2)-T-7MeW-K(NMeAc)-Pen(3)-AEF(N(Me)2)-2Nal-THP-Dap(Ac)-N-3Pya-Sar-CON(Me)2] (Ac-[Pen]D(NMe2)T[Trp(7-Me)][Lys(Me)](Ac)[Pen]Y(Me2NCH2CH2)[2Nal][Thp][Dap](Ac)N[3Pal][Sar]-NMe2; disulfide 1-6)
187 A^2	0.97 nM	CC(=O)NCCCC[C@@H]1NC(=O)[C@H](Cc2c[nH]c3c(C)cccc23)NC(=O)[C@H]([C@@H](C)O)NC(=O)[C@H](CC(N)=O)NC(=O)[C@@H](NC(=O)[C@@H](CCCNC(=N)N)NC(=O)CCOCCOCC[N+](C)(C)C)C(C)(C)SSC(C)(C)[C@@H](C(=O)N[C@@H](Cc2ccc(OCCN)cc2)C(=O)N[C@@H](Cc2ccc3ccccc3c2)C(=O)NC2(C(=O)N[C@@H](CCCCNC(C)=O)C(=O)N[C@@H](CC(N)=O)C(=O)N[C@@H](Cc3cncc(C)c3)C(=O)N(C)CC(N)=O)CCOCC2)NC1=O [compound 541, cPEG3aCO-r-Pen(3)-N-T-7MeW-K(Ac)-Pen(3)-AEF-2Nal-THP-K(Ac)-N-5MePyridinAla-Sar-CONH2] ({Me3N+(CH2)2O(CH2)2O(CH2)2CO}-[dR][Pen]NT[Trp(7-Me)]K(Ac)[Pen][AEF][2Nal][Thp]K(Ac)N[3Pal(5-Me)][Sar]-NH2; disulfide 2-7)
133 A^2	1.8 nM	CC(=O)N[C@@H]1C(=O)N[C@@H](CC(=O)N(C)C)C(=O)N[C@@H]([C@@H](C)O)C(=O)N[C@@H](Cc2c[nH]c3c(C)cccc23)C(=O)N[C@@H](CCCCN(C)C(C)=O)C(=O)N[C@H](C(=O)N[C@@H](Cc2ccc(OCCOCCOCC[N+](C)(C)C)cc2)C(=O)N[C@@H](Cc2ccc3ccccc3c2)C(=O)NC2(C(=O)N[C@@H](CCCCN(C)C(C)=O)C(=O)N[C@@H](CC(N)=O)C(=O)N[C@@H](Cc3cccnc3)C(=O)N(C)CC(=O)N(C)C)CCOCC2)C(C)(C)SSC1(C)C [compound 183, MeCO-Pen(3)-N(N(Me)2)-T-7MeW-K(NMeAc)-Pen(3)-APEG3F-2Nal-THP-K(NMeAc)-N-3Pya-Sar-CON(Me)2] (Ac-[Pen]D(NMe2)T[Trp(7-Me)][Lys(Me)](Ac)[Pen]Y(CH2CH2OCH2CH2OCH2CH2NMe3+)[2Nal][Thp][Lys(Me)](Ac)N[3Pal][Sar]-NMe2; disulfide 1-6)
